In the supplement of paper PMC10307832:

What was measured:
Assay in all cases: relative viability (nuclei count vs DMSO), 5 days (fraction); higher = more cells survive
[1] = compound: O=C(NC1CCNCC1)c1n[nH]cc1NC(=O)c1c(Cl)cccc1Cl [AT-7519] + COc1cccc2cc(-c3nc([C@H]4CC[C@H](C(=O)O)CC4)n4ncnc(N)c34)[nH]c12 [OSI-027] (partner 0.5 µM)
Procedure, shortened: (§1)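 Values are medians from duplicate plates. Each reflects relative viability, defined as the nuclei count of treated wells over that of vehicle wells. Lung cancer cell lines in 1536-well plates were pin-tool dosed one day after seeding with one drug alone or with a fixed anchor-drug dose plus five library-drug doses (not always all listed) in √10 steps, then fixed, stained and imaged at 4× after 5 days.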

[2] = compound: O=C(NC1CCNCC1)c1n[nH]cc1NC(=O)c1c(Cl)cccc1Cl [AT-7519] + CC(C)C[C@H](NC(=O)[C@H](Cc1ccccc1)NC(=O)c1cnccn1)B(O)O [Bortezomib] (partner 0.002 µM)
Procedure, shortened: as §1

[3] = compound: C1=CC2=C(C=C(C(=C2N=C1)O)N=NC3=CC4=C(C=C3)C=C(C=C4)S(=O)(=O)O)S(=O)(=O)O + C[C@]1(O)C[C@@H](c2nc(-c3ccc4ccc(-c5ccccc5)nc4c3)c3c(N)nccn32)C1 [Linsitinib] (partner 1 µM)
Procedure, shortened: as §1

[4] = compound: O=C(NC1CCNCC1)c1n[nH]cc1NC(=O)c1c(Cl)cccc1Cl [AT-7519] + COc1cc2c(Oc3ccc(NC(=O)C4(C(=O)Nc5ccc(F)cc5)CC4)cc3F)ccnc2cc1OCCCN1CCOCC1 [Foretinib] (partner 0.25 µM)
Procedure, shortened: as §1

UMC-11
relative viability ([1]; first compound 0.01 µM): 0.442
relative viability ([1]; first compound 0.03162 µM): 0.432
relative viability ([1]; first compound 0.3162 µM): 0.404
relative viability ([1]; first compound 1 µM): 0.27
relative viability ([2]; first compound 0.01 µM): 1.03
relative viability ([2]; first compound 0.03162 µM): 0.667
relative viability ([2]; first compound 0.3162 µM): 0.427
relative viability ([2]; first compound 1 µM): 0.359
relative viability ([3]; first compound 0.08 µM): 1.11
relative viability ([3]; first compound 0.253 µM): 0.943
relative viability ([3]; first compound 0.8 µM): 1.03
relative viability ([3]; first compound 2.53 µM): 1.02
relative viability ([3]; first compound 8 µM): 0.944
relative viability ([4]; first compound 0.01 µM): 1.1
relative viability ([4]; first compound 0.03162 µM): 0.934
relative viability ([4]; first compound 0.3162 µM): 0.838
relative viability ([4]; first compound 1 µM): 0.457
